US20160038532A1, “Treatment of Multiple Sclerosis With Combination of Laquinimod and Glatiramer Acetate” (TEVA PHARMACEUTICAL INDUSTRIES, LTD., priority 2011, published 2016)
Where “and” joins values, the source holds several entries; their conditions need not be identical. Equal entries are not always repeated. Marks after values point to notes of the source that are not given here.

Legend:
MOG-induced EAE [1] = experiment: MOG-induced EAE, laquinimod alone and with GA blocking (Example 2.1), clinical signs; assay type: in vivo, C57B1/6 mice; set-up: Mortality: concentration or dose not given beside the values
MOG-induced EAE [2] = experiment: MOG-induced EAE with GA blocking and s.c. daily GA (Example 2.4); assay type: in vivo, C57B1 mice; set-up: key to MMS value / GMS value: clinical score per grading system; 1+ = sick, 5 = dead/killed
Description: The C57B1 strain of mouse was selected, as it is an established EAE model.
Laquinimod was administered daily orally for 30 days at dose level of 5.0 mg/kg or 25.0 mg/kg.
Disease was induced in the mice by the injection of the encephalitogenic emulsion (MOG/CFA). Laquinimod was administered orally for 30 consecutive days from the initiation of the study.
EAE induction EAE was induced by injecting the encephalitogenic mixture (emulsion) consisting of MOG (150.0 μg/mouse). A volume of 0.2 ml of emulsion was injected subcutaneously into the flanks of the mice. Pertussis toxin was injected intraperitoneally on the day of induction and 48 hours later (total amount was 0300 μg/mouse in 0.2 ml dosage volume).
The emulsion (for groups 2 and 3 and groups 1 and 4 to 8) were made from equal parts of oil and liquid portions (1:1) in two syringes connected to each other with Leur lock, transferred to insulin syringe and 0.2 ml was injected to the right flank of each mouse. The dose of the MOG in all the groups (1 to 8) was 150 μg/mouse.
The test concentrations of laquinimod were prepared in purified water. For high dose (25.0 mg/kg) 2.5 mg/mL stock solution were prepared (groups #3, 6 and 8). The stock solutions were diluted 1:5 to yield 0.5 mg/mL for dose level of 5.0 mg/kg for groups 5 and 7. Laquinimod was administered to the respective groups by gavage at a volume of 0.2 ml/mouse.
Every day one tube was thawed and brought to RT.
Clinical signs Scaring of EAE clinical signs was started from Day 10 post EAE induction and was continued daily until Day 30. The clinical signs were recorded according to a grading system described in the table 11 below
mice having scores of 1 and above were considered sick. When the first clinical sign appeared all mice were given food soaked in water, which was spread on different places on the bedding of the cages. An animal which continued to have score 4 for three days was killed on humane grounds and given score 5 on the next day. For calculation purposes, the score of animals that were sacrificed or died was carried forward.
• The number of sick animals in each group were summed. • The incidence of disease was calculated as
• The number of dead or moribund animals in each group were summed. • The mortality of disease was calculated as
• The mean duration of disease expressed in days was calculated as
• The mean onset of disease expressed in days was calculated as
• The mean maximal score (MMS) of each group was calculated as
• The daily scores of each mouse in the test group were summed and the Individual mean daily score (IMS) was calculated as […]

[3] = Weight of EAE mice (Example 2.1); assay type: in vivo, C57B1/6 mice
From the text: FIG. 1 is a graphical representation of the experimental results from Example 2.1.
The differences were statistically significant (by MANOVA). […] However, when the first signs appeared the mice started to lose weight. On days 16 and 24 the weight of control mice was statistically different from almost all the others (Table 4, FIG. 1B).

[4] = laquinimod 5 mg/kg/day gavage, alone or + GA-blocking 12.5 mg/kg day 0
[5] = laquinimod 25 mg/kg/day gavage, alone or + GA-blocking 12.5 mg/kg day 0
[6] = LAQ 5.0 mg/kg oral daily 30 d, alone or + GA 250 mg/kg s.c. daily 10 d
[7] = LAQ 25.0 mg/kg oral daily 30 d, alone or + GA 250 mg/kg s.c. daily 10 d
[8] = laquinimod 5 mg/kg/day, alone or + GA-blocking
[9] = laquinimod 25 mg/kg/day, alone or + GA-blocking
[10] = GA-blocking 12.5 mg/kg (250 μg/mouse) in inoculum day 0
[11] = GA blocking 12.5 mg/kg once with encephalitogen, alone or + LAQ 25.0 mg/kg oral daily 30 d
[12] = GA blocking 12.5 mg/kg once with encephalitogen, alone or + LAQ 25.0 mg/kg oral daily 30 d, listed as GA blocking

With `CCN(C(=O)c1c(O)c2c(Cl)cccc2n(C)c1=O)c1ccccc1` [laquinimod] as the molecule, how does the inhibition at 5 mg/kg (MOG-induced EAE [1]; Mus musculus, po, 0 h, laquinimod 5 mg/kg/day gavage, alone or + GA-blocking 12.5 mg/kg day 0, read-out: % inhibition compared to control (GMS)) read?
Its inhibition at 5 mg/kg is 31.2%.

What about the inhibition at 25 mg/kg (MOG-induced EAE [1]; Mus musculus, po, 0 h, laquinimod 25 mg/kg/day gavage, alone or + GA-blocking 12.5 mg/kg day 0, read-out: % inhibition compared to control (GMS)) of the same molecule?
The inhibition at 25 mg/kg was 54.4%.

What about the “Group Mean Score” value (MOG-induced EAE [1]; [4]) of the same molecule?
Its value is 2.25**.

And the Incidence (MOG-induced EAE [1]; [4])?
Its Incidence is 13/13.

What about the “Mean Disease Duration” value (MOG-induced EAE [1]; [4]) of the same molecule?
The value was 13.2*** days.

And the “Mean Maximal Score” value (MOG-induced EAE [1]; [4])?
The value was 4.38*.

What about the “Mean Onset” value (MOG-induced EAE [1]; [4]) of the same molecule?
Its value is 16.8* days.

What about the “Group Mean Score” value (MOG-induced EAE [1]; [5]) of the same molecule?
The value was 1.49***.

What about the Incidence (MOG-induced EAE [1]; [5]) of the same molecule?
The Incidence was 14/15.

What about the “Mean Disease Duration” value (MOG-induced EAE [1]; [5]) of the same molecule?
Its value is 10.0*** days.

What about the “Mean Maximal Score” value (MOG-induced EAE [1]; [5]) of the same molecule?
Its value is 3.27***.

What about the “Mean Onset” value (MOG-induced EAE [1]; [5]) of the same molecule?
The value was 20.3** days.

And the Mortality (MOG-induced EAE [1]; mouse, in vivo)?
The Mortality was 0/15 and 2/13.

What about the “% Inhibition 1 (incidence)” value (MOG-induced EAE [2]; [6]) of the same molecule?
Its value is 52.9%.

What about the “GMS % Inhibition 3” value (MOG-induced EAE [2]; [6]) of the same molecule?
Its value is 71.4%.

And the GMS value (MOG-induced EAE [2]; [6])?
The GMS value was 0.6 ± 0.9.

And the Incidence (MOG-induced EAE [2]; [6])?
The Incidence was 8/10.

What about the “MMS % Inhibition 2” value (MOG-induced EAE [2]; [6]) of the same molecule?
The value was 55.9%.

What about the MMS value (MOG-induced EAE [2]; [6]) of the same molecule?
The MMS value was 1.5 ± 1.8.

And the “Mean Duration” value (MOG-induced EAE [2]; [6])?
The value was 4.2 ± 6.0 days.

And the “Mean Onset” value (MOG-induced EAE [2]; [6])?
Its value is 26.9 ± 6.0 days.

What about the Mortality (MOG-induced EAE [2]; [6]) of the same molecule?
Its Mortality is 0/20.

What about the “% Inhibition 1 (incidence)” value (MOG-induced EAE [2]; [7]) of the same molecule?
Its value is 88.2%.

And the “GMS % Inhibition 3” value (MOG-induced EAE [2]; [7])?
The value was 95.2%.

And the GMS value (MOG-induced EAE [2]; [7])?
The GMS value was 0.1 ± 0.4.

And the Incidence (MOG-induced EAE [2]; [7])?
Its Incidence is 2/20.

And the “MMS % Inhibition 2” value (MOG-induced EAE [2]; [7])?
The value was 91.2%.

What about the MMS value (MOG-induced EAE [2]; [7]) of the same molecule?
The MMS value was 0.3 ± 1.0.

What about the “Mean Duration” value (MOG-induced EAE [2]; [7]) of the same molecule?
The value was 0.8 ± 2.6 days.

And the “Mean Onset” value (MOG-induced EAE [2]; [7])?
Its value is 30.3 ± 2.6 days.

What about the Mortality (MOG-induced EAE [2]; [7]) of the same molecule?
The Mortality was 0/20.

What about the “weight, day 5 after induction” value [3, 8] of the same molecule?
Its value is 17.5.

What about the “weight, day 10 after induction” value [3, 8] of the same molecule?
Its value is 18.5.

What about the “weight, day 16 after induction” value [3, 8] of the same molecule?
The value was 18.6.

And the “weight, day 24 after induction” value [3, 8]?
Its value is 16.5.

What about the “weight, day 30 after induction” value [3, 8] of the same molecule?
The value was 16.0.

And the “weight, day 5 after induction” value [3, 9]?
The value was 17.8.

What about the “weight, day 10 after induction” value [3, 9] of the same molecule?
The value was 18.9.

What about the “weight, day 16 after induction” value [3, 9] of the same molecule?
Its value is 19.1*.

What about the “weight, day 24 after induction” value [3, 9] of the same molecule?
Its value is 17.5.

What about the “weight, day 30 after induction” value [3, 9] of the same molecule?
Its value is 17.6.

For “L-glutamic acid polymer with L-alanine, L-lysine and L-tyrosine, acetate (salt) [GA]”, which “% inhibition compared to Control (GMS)” value (MOG-induced EAE [1]; [10]) is on record?
The value was 48%.

And the “Group Mean Score” value (MOG-induced EAE [1]; [10])?
Its value is 1.70**.

What about the Incidence (MOG-induced EAE [1]; [10]) of the same molecule?
Its Incidence is 14/16.

What about the “Mean Disease Duration” value (MOG-induced EAE [1]; [10]) of the same molecule?
Its value is 10.9*** days.

And the “Mean Maximal Score” value (MOG-induced EAE [1]; [10])?
Its value is 3.34**.

What about the “Mean Onset” value (MOG-induced EAE [1]; [10]) of the same molecule?
Its value is 19.5* days.

What about the “% Inhibition 1 (incidence)” value (MOG-induced EAE [2]; GA 250 mg/kg s.c. daily 10 d) of the same molecule?
Its value is 23.5%.

And the “GMS % Inhibition 3” value (MOG-induced EAE [2]; GA 250 mg/kg s.c. daily 10 d)?
The value was 38.1%.

And the GMS value (MOG-induced EAE [2]; GA 250 mg/kg s.c. daily 10 d)?
The GMS value was 1.3 ± 1.1.

What about the Incidence (MOG-induced EAE [2]; GA 250 mg/kg s.c. daily 10 d) of the same molecule?
The Incidence was 13/20.

What about the “MMS % Inhibition 2” value (MOG-induced EAE [2]; GA 250 mg/kg s.c. daily 10 d) of the same molecule?
Its value is 26.5%.

What about the MMS value (MOG-induced EAE [2]; GA 250 mg/kg s.c. daily 10 d) of the same molecule?
The MMS value was 2.5 ± 1.9.

What about the “Mean Duration” value (MOG-induced EAE [2]; GA 250 mg/kg s.c. daily 10 d) of the same molecule?
The value was 8.3 ± 6.7 days.

And the “Mean Onset” value (MOG-induced EAE [2]; GA 250 mg/kg s.c. daily 10 d)?
The value was 22.5 ± 6.7 days.

And the “% Inhibition 1 (incidence)” value (MOG-induced EAE [2]; [11])?
Its value is 52.9%.

And the GMS value (MOG-induced EAE [2]; [11])?
Its GMS value is 0.5 ± 0.9.

And the Incidence (MOG-induced EAE [2]; [11])?
The Incidence was 8/20.

What about the “MMS % Inhibition 2” value (MOG-induced EAE [2]; [11]) of the same molecule?
Its value is 70.6%.

What about the “Mean Duration” value (MOG-induced EAE [2]; [11]) of the same molecule?
Its value is 4.3 ± 6.3 days.

What about the “Mean Onset” value (MOG-induced EAE [2]; [11]) of the same molecule?
Its value is 26.6 ± 6.4 days.

And the “GMS % Inhibition 3” value (MOG-induced EAE [2]; [12])?
The value was 76.2%.

And the MMS value (MOG-induced EAE [2]; [12])?
Its MMS value is 1.0 ± 1.5.

What about the “GMS % Inhibition 3” value (MOG-induced EAE [2]; GA blocking 12.5 mg/kg once with encephalitogen, alone or + LAQ 25.0 mg/kg oral daily 30 d, listed as GA-Block) of the same molecule?
Its value is “(76.2) %”.

And the “weight, day 5 after induction” value ([3]; GA-blocking alone)?
Its value is 17.9.

What about the “weight, day 10 after induction” value ([3]; GA-blocking alone) of the same molecule?
The value was 19.3.

And the “weight, day 16 after induction” value ([3]; GA-blocking alone)?
Its value is 19.9**.

And the “weight, day 24 after induction” value ([3]; GA-blocking alone)?
The value was 18.0*.

What about the “weight, day 30 after induction” value ([3]; GA-blocking alone) of the same molecule?
Its value is 18.2.
